Assay results taken from ChEMBL document CHEMBL1201862, “PubChem BioAssay data set” (2004).
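Five concentrations, 48 hours, 96-well plates. GI50 is the concentration that inhibits growth by half.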 Activity calls are given as the source filed them. No stated cut-off is given here; in the data, active = GI50 up to about 1.1 µM and inactive = higher.

Key:
Test in all cases: NCI-60 cell line screen, 48 h
786-0 = test system: 786-0
A498 = test system: A498
A549 = test system: A549
ACHN = test system: ACHN
BT-549 = test system: BT-549
CAKI-1 = test system: CAKI-1
CCRF-CEM = test system: CCRF-CEM
COLO 205 = test system: COLO 205
DU-145 = test system: DU-145
EKVX = test system: EKVX
HCC 2998 = test system: HCC 2998
HCT-116 = test system: HCT-116
HCT-15 = test system: HCT-15
HL-60 = test system: HL-60
HOP-62 = test system: HOP-62
HOP-92 = test system: HOP-92
HT-29 = test system: HT-29
Hs-578T = test system: Hs-578T
IGROV-1 = test system: IGROV-1
K562 = test system: K562
KM12 = test system: KM12
LOX IMVI = test system: LOX IMVI
M14 = test system: M14
MCF7 = test system: MCF7
MDA-MB-231 = test system: MDA-MB-231
MDA-MB-435 = test system: MDA-MB-435
MDA-N = test system: MDA-N
MOLT-4 = test system: MOLT-4
Malme-3M = test system: Malme-3M
NCI-H226 = test system: NCI-H226
NCI-H23 = test system: NCI-H23
NCI-H460 = test system: NCI-H460
NCI-H522 = test system: NCI-H522
NCI/ADR-RES = test system: NCI/ADR-RES
OVCAR-3 = test system: OVCAR-3
OVCAR-4 = test system: OVCAR-4
OVCAR-5 = test system: OVCAR-5
OVCAR-8 = test system: OVCAR-8
PC-3 = test system: PC-3
RPMI-8226 = test system: RPMI-8226
RXF 393 = test system: RXF 393
SF-268 = test system: SF-268
SF-295 = test system: SF-295
SF-539 = test system: SF-539
SK-MEL-28 = test system: SK-MEL-28
SK-MEL-2 = test system: SK-MEL-2
SK-MEL-5 = test system: SK-MEL-5
SK-OV-3 = test system: SK-OV-3
SN12C = test system: SN12C
SNB-19 = test system: SNB-19
SNB-75 = test system: SNB-75
SR = test system: SR
SW-620 = test system: SW-620
T47D = test system: T47D
TK-10 = test system: TK-10
U-251 = test system: U-251
UACC-257 = test system: UACC-257
UACC-62 = test system: UACC-62
UO-31 = test system: UO-31

O=C1N[C@H]2C(=O)c3c(Cl)sc(Cl)c3[C@H]2O1
GI50 (786-0): 14.2 µM (inactive)
GI50 (A498): 24.1 µM (inactive)
GI50 (A549): 19.5 µM (inactive)
GI50 (ACHN): 7.6 µM (inactive)
GI50 (BT-549): 23.3 µM (inactive)
GI50 (CAKI-1): 4.79 µM (inactive)
GI50 (CCRF-CEM): 0.774 µM (active)
GI50 (COLO 205): 6.52 µM (inactive)
GI50 (DU-145): 11.2 µM (inactive)
GI50 (EKVX): 2 µM (inactive)
GI50 (HCC 2998): 1.94 µM (inactive)
GI50 (HCT-116): 3.66 µM (inactive)
GI50 (HCT-15): 3.86 µM
GI50 (HL-60): 2.18 µM (inactive)
GI50 (HOP-62): 16.5 µM (inactive)
GI50 (HOP-92): 7.45 µM (inactive)
GI50 (HT-29): 2.46 µM (inactive)
GI50 (Hs-578T): 23.2 µM (inactive)
GI50 (IGROV-1): 4.69 µM (inactive)
GI50 (K562): 1.99 µM (inactive)
GI50 (KM12): 17.3 µM (inactive)
GI50 (LOX IMVI): 2.7 µM (inactive)
GI50 (M14): 6.28 µM (inactive)
GI50 (MCF7): 16.7 µM (inactive)
GI50 (MDA-MB-231): 14.1 µM (inactive)
GI50 (MDA-MB-435): 4.81 µM (inactive)
GI50 (MDA-N): 5.06 µM (inactive)
GI50 (MOLT-4): 3.12 µM (inactive)
GI50 (Malme-3M): 14.3 µM (inactive)
GI50 (NCI-H226): 32.1 µM (inactive)
GI50 (NCI-H23): 5.94 µM (inactive)
GI50 (NCI-H460): 18.1 µM (inactive)
GI50 (NCI-H522): 3.13 µM (inactive)
GI50 (NCI/ADR-RES): 20.1 µM (inactive)
GI50 (OVCAR-3): 1.92 µM (inactive)
GI50 (OVCAR-4): 2.15 µM (inactive)
GI50 (OVCAR-5): 19.4 µM (inactive)
GI50 (OVCAR-8): 2.79 µM (inactive)
GI50 (PC-3): 14.2 µM (inactive)
GI50 (RPMI-8226): 13.3 µM (inactive)
GI50 (RXF 393): 3.42 µM (inactive)
GI50 (SF-268): 4.8 µM (inactive)
GI50 (SF-295): 16.9 µM (inactive)
GI50 (SF-539): 5.85 µM (inactive)
GI50 (SK-MEL-28): 6.64 µM (inactive)
GI50 (SK-MEL-2): 19.5 µM (inactive)
GI50 (SK-MEL-5): 18.1 µM (inactive)
GI50 (SK-OV-3): 15.5 µM (inactive)
GI50 (SN12C): 10.9 µM (inactive)
GI50 (SNB-19): 15.2 µM (inactive)
GI50 (SNB-75): 15.5 µM (inactive)
GI50 (SR): 2.56 µM (inactive)
GI50 (SW-620): 2.18 µM (inactive)
GI50 (T47D): 11.6 µM (inactive)
GI50 (TK-10): 29.2 µM (inactive)
GI50 (U-251): 3.32 µM (inactive)
GI50 (UACC-257): 6.7 µM (inactive)
GI50 (UACC-62): 13.3 µM (inactive)
GI50 (UO-31): 1.71 µM (inactive)

COc1ccc2[nH]c3c(C)c4ccnc(NCCCN(C)CCCNC(=O)NCCCN(C)CCCNc5nccc6c(C)c7[nH]c8ccc(OC)cc8c7c(C)c56)c4c(C)c3c2c1
GI50 (786-0): 0.233 µM (active)
GI50 (A498): 1.39 µM (inactive)
GI50 (A549): 0.249 µM (active)
GI50 (ACHN): 0.352 µM (active)
GI50 (BT-549): 1.62 µM (inactive)
GI50 (CAKI-1): 0.716 µM (active)
GI50 (CCRF-CEM): 0.147 µM (active)
GI50 (COLO 205): 0.324 µM (active)
GI50 (DU-145): 1.19 µM (inactive)
GI50 (EKVX): 0.925 µM (active)
GI50 (HCC 2998): 0.265 µM (active)
GI50 (HCT-116): 0.208 µM (active)
GI50 (HCT-15): 1.26 µM
GI50 (HL-60): 0.147 µM (active)
GI50 (HOP-62): 0.419 µM (active)
GI50 (HOP-92): 0.406 µM (active)
GI50 (HT-29): 0.245 µM (active)
GI50 (Hs-578T): 0.977 µM (active)
GI50 (IGROV-1): 0.476 µM (active)
GI50 (K562): 0.23 µM (active)
GI50 (KM12): 1.03 µM (active)
GI50 (LOX IMVI): 0.855 µM (active)
GI50 (M14): 0.753 µM (active)
GI50 (MCF7): 0.164 µM (active)
GI50 (MDA-MB-231): 0.403 µM (active)
GI50 (MDA-MB-435): 0.466 µM (active)
GI50 (MDA-N): 0.748 µM (active)
GI50 (MOLT-4): 0.236 µM (active)
GI50 (Malme-3M): 0.569 µM (active)
GI50 (NCI-H226): 0.526 µM (active)
GI50 (NCI-H23): 0.989 µM (active)
GI50 (NCI-H460): 0.348 µM (active)
GI50 (NCI-H522): 0.226 µM (active)
GI50 (NCI/ADR-RES): 2.14 µM (inactive)
GI50 (OVCAR-3): 1.29 µM (inactive)
GI50 (OVCAR-4): 0.596 µM (active)
GI50 (OVCAR-5): 0.843 µM (active)
GI50 (OVCAR-8): 0.638 µM (active)
GI50 (PC-3): 0.92 µM (active)
GI50 (RPMI-8226): 0.564 µM (active)
GI50 (RXF 393): 0.369 µM (active)
GI50 (SF-268): 0.551 µM (active)
GI50 (SF-295): 0.566 µM (active)
GI50 (SF-539): 0.314 µM (active)
GI50 (SK-MEL-28): 1.48 µM (inactive)
GI50 (SK-MEL-2): 1.35 µM (inactive)
GI50 (SK-MEL-5): 0.774 µM (active)
GI50 (SK-OV-3): 1.67 µM (inactive)
GI50 (SN12C): 0.269 µM (active)
GI50 (SNB-19): 0.264 µM (active)
GI50 (SNB-75): 0.402 µM (active)
GI50 (SR): 0.102 µM (active)
GI50 (SW-620): 0.202 µM (active)
GI50 (T47D): 0.69 µM (active)
GI50 (TK-10): 1.48 µM (inactive)
GI50 (U-251): 0.205 µM (active)
GI50 (UACC-257): 1.6 µM (inactive)
GI50 (UACC-62): 1.33 µM (inactive)
GI50 (UO-31): 0.881 µM (active)

Cc1c(C)c(S(=O)(=O)N(CCCCCCN)OCCCN)c(C)c2c1OC(C)(C)CC2
GI50 (786-0): 3.22 µM (inactive)
GI50 (A498): 16.1 µM (inactive)
GI50 (A549): 4.94 µM (inactive)
GI50 (ACHN): 8.99 µM (inactive)
GI50 (BT-549): 13.3 µM (inactive)
GI50 (CAKI-1): 15.8 µM (inactive)
GI50 (CCRF-CEM): 2.31 µM (inactive)
GI50 (COLO 205): 4.29 µM (inactive)
GI50 (DU-145): 26.4 µM (inactive)
GI50 (EKVX): 6.65 µM (inactive)
GI50 (HCC 2998): 2.04 µM (inactive)
GI50 (HCT-116): 1.97 µM (inactive)
GI50 (HCT-15): 15.1 µM
GI50 (HL-60): 1.22 µM (inactive)
GI50 (HOP-62): 4.36 µM (inactive)
GI50 (HOP-92): 4.16 µM (inactive)
GI50 (HT-29): 5.6 µM (inactive)
GI50 (Hs-578T): 3.72 µM (inactive)
GI50 (IGROV-1): 2 µM (inactive)
GI50 (K562): 4.53 µM (inactive)
GI50 (KM12): 1.91 µM (inactive)
GI50 (LOX IMVI): 2.4 µM (inactive)
GI50 (M14): 17.8 µM (inactive)
GI50 (MCF7): 9.59 µM (inactive)
GI50 (MDA-MB-231): 3.56 µM (inactive)
GI50 (MDA-MB-435): 5.37 µM (inactive)
GI50 (MDA-N): 2.81 µM (inactive)
GI50 (MOLT-4): 2.18 µM (inactive)
GI50 (Malme-3M): 2.15 µM (inactive)
GI50 (NCI-H226): 5.37 µM (inactive)
GI50 (NCI-H23): 8.83 µM (inactive)
GI50 (NCI-H460): 2.69 µM (inactive)
GI50 (NCI-H522): 4.7 µM (inactive)
GI50 (NCI/ADR-RES): 15.5 µM (inactive)
GI50 (OVCAR-3): 2.44 µM (inactive)
GI50 (OVCAR-4): 2.49 µM (inactive)
GI50 (OVCAR-5): > 28.7 µM (inactive)
GI50 (OVCAR-8): 8.17 µM (inactive)
GI50 (PC-3): 3.7 µM (inactive)
GI50 (RPMI-8226): 4.39 µM (inactive)
GI50 (RXF 393): 4.13 µM (inactive)
GI50 (SF-268): 6.93 µM (inactive)
GI50 (SF-295): 7.5 µM (inactive)
GI50 (SF-539): > 24.1 µM (inactive)
GI50 (SK-MEL-28): 17.6 µM (inactive)
GI50 (SK-MEL-2): 2.42 µM (inactive)
GI50 (SK-MEL-5): 10.6 µM (inactive)
GI50 (SK-OV-3): 10.1 µM (inactive)
GI50 (SN12C): 13 µM (inactive)
GI50 (SNB-19): 3.96 µM (inactive)
GI50 (SNB-75): 2.99 µM (inactive)
GI50 (SR): 5.92 µM (inactive)
GI50 (SW-620): 7.45 µM (inactive)
GI50 (T47D): 12.1 µM (inactive)
GI50 (TK-10): 14.3 µM (inactive)
GI50 (U-251): 4.46 µM (inactive)
GI50 (UACC-257): 11 µM (inactive)
GI50 (UACC-62): 11.4 µM (inactive)
GI50 (UO-31): 11.8 µM (inactive)
